Laboratory results taken from patent US11040048B2, “Medicament for treating influenza characterized by combining a Cap-dependent endonuclease inhibitor and an anti-influenza drug” (Shionogi & Co., Ltd., priority 2015, dated 2021).
Values joined by “and” are separate entries in the source; they are usually repeats but may differ in a detail not shown here. Equal entries are not always repeated. Where two headings read alike, the source gives them in different places.

Legend:
[1] = biological target: cap-dependent endonuclease (CEN); RNP fraction containing PB1-PB2-PA complex (Influenza A virus, UniProt P15659); test: biochemical
[2] = test system: influenza virus A; test: Synergistic CPE inhibitory effect confirming assay, summary for influenza A strains; assay type: cell-based
[3] = test system: A/PR/8/34 (H1N1); test: microbe, parasite or virus in culture; assay type: cell-based, influenza virus; details: single agent, MDCK
[4] = test system: B/Maryland/1/59; test: microbe, parasite or virus in culture; assay type: cell-based, influenza virus
[5] = test system: A/Victoria/3/75 (H3N2); test: microbe, parasite or virus in culture; assay type: cell-based; details: Influenza A virus, single agent, MDCK
[6] = in vivo; design: species or system mice or SD rats
Protocol: (1) Experimental animals: mice or SD rats were used.
(2) Rearing condition: mice or SD rats were allowed free access to solid feed and sterilized tap water.
(3) Setting of dosage and grouping: Oral administration and intravenous administration were performed with the predetermined dosage. Grouping was set as below. (Dosage was changed per compound)
Oral administration 1 to 30 mg/kg (n=2 to 3)
Intravenous administration 0.5 to 10 mg/kg (n=2 to 3)
(4) Preparation of administration solutions: Oral administration was performed as solution or suspension. Intravenous administration was performed after solubilization.
(5) Routes of administration: Oral administration was performed mandatory into the stomach by oral sonde. Intravenous administration was performed from caudal vein by syringes with needle.
(6) Evaluation items: Blood was collected serially and concentration of a compound of the present invention in plasma was measured by LC/MS/MS.
(7) Statistical analysis: About transition of concentration of a compound of the present invention in plasma, the area under the plasma concentration versus time curve (AUC) was calculated by non-linear least-squares method program, WinNonlin (a registered trademark), and bioavailability (BA) of a compound of the present invention was calculated from AUCs of the oral administration group and the intravenous administration group. […]

[7] = monkey, in vivo, po
[8] = rat, po
Text: FIG. 1 is a result of measuring the plasma concentration of Compound III-1, after oral administration of prodrug Compound II-4, the parent compound of which is Compound III-1, to rat under non-fasting conditions.
FIG. 2 is a result of measuring the plasma concentration of Compound II-4, after oral administration of prodrug Compound II-4, the parent compound of which is Compound III-1, to rat under non-fasting conditions.

[9] = test system: influenza virus; test: CPE inhibitory effect confirming assay (WST-8); assay type: cell-based; details: unidentified influenza virus, read-out: CPE_EC50
[10] = test system: A/WSN/33 (H1N1); test: Synergistic CPE inhibitory effect confirming assay, MDCK cells; assay type: cell-based; details: Influenza A virus, single agent
[11] = test system: A/HongKong/8/68 (H3N2); test: as above; assay type: cell-based; details: Influenza A virus, single agent
[12] = unidentified influenza virus, MDCK

## O=C1c2c(O)c(=O)ccn2N([C@@H]2c3ccccc3SCc3cccc(Cl)c32)[C@H]2COCCN12 (racemic) [Reference 682]
[1]
  IC50: 104 nM

## [H]/N=C(\N)N[C@H]1C=C(C(=O)O)O[C@@H]([C@H](OC)[C@H](O)CO)[C@@H]1NC(C)=O [Laninamivir, Laninaminivir]
[2]
  proliferation inhibitory effect on influenza virus A (combination effect): synergistic
[3]; Influenza A virus
  EC50: 213 nM
[4]; [12]
  EC50: 110 nM

## CC(N)C12CC3CC(CC(C3)C1)C2 (stereo not shown) [Rimantadine]
[5]
  EC50: 158 nM

## O=C1c2c(O)c(=O)ccn2N([C@H]2c3ccc(F)cc3CSc3ccccc32)[C@@H]2COCCN12 [III-2]
[6]
  bioavailability: 4.2%

## CC(=O)N[C@H]1[C@H]([C@H](O)[C@H](O)CO)OC(C(=O)O)=C[C@@H]1N=C(N)N [Zanamivir]
[2]
  proliferation inhibitory effect on influenza virus A (combination effect): […]
[3]; Influenza A virus
  EC50: […]
[4]; [12]
  EC50: 163 nM

## O=C(Nc1ncc([N+](=O)[O-])s1)c1ccccc1O [Tizoxanide]
[5]
  EC50: 8310 nM

## NC12CC3CC(CC(C3)C1)C2 [Amantadine]
[5]
  EC50: 2510 nM

## CC(=O)Oc1c2n(ccc1=O)N([C@@H]1c3ccccc3SCc3c1ccc(F)c3F)[C@@H]1COCCN1C2=O [II-2]
[7]
  plasma concentration of prodrug in all plasma samples: a determination limit or less

## COC(=O)OCOc1c2n(ccc1=O)N([C@@H]1c3ccccc3SCc3c1ccc(F)c3F)[C@@H]1COCCN1C2=O [II-4]
[8]; in vivo
  concentration of prodrug in plasma samples: a determination limit or less
[8]
  conversion of prodrug to parent compound in vivo after administration: changed promptly to Compound III-1

## O=C1c2c(O)c(=O)ccn2N([C@@H]2c3ccccc3SCc3c2ccc(F)c3F)[C@@H]2CC3(CCOCC3)CCN12 [III-9]
[9]
  EC50: 0.864 nM

## CCOC(=O)C1=C[C@@H](OC(CC)CC)[C@H](NC(C)=O)[C@@H](N)C1 [Oseltamivir]
[2]
  proliferation inhibitory effect on influenza virus A (combination effect): synergistic
[10]
  EC50: 59300 nM
[5]
  EC50: 245 nM
[11]
  EC50: 71.2 nM
[3]; Influenza A virus
  EC50: 1830 nM
[4]; [12]
  EC50: 864 nM

## O=C1c2c(O)c(=O)ccn2N([C@@H]2c3ccccc3SCc3c2ccc(F)c3F)[C@@H]2CC3(CCN12)COC3 [III-12]
[9]
  EC50: 0.656 nM

## O=C1c2c(O)c(=O)ccn2N([C@@H]2c3ccccc3CSc3ccccc32)[C@H]2COCCN12 (racemic) [Reference 715]
[1]
  IC50: 25.5 nM

## O=C1c2c(O)c(=O)ccn2N([C@@H]2c3ccccc3SCc3c2ccc(F)c3F)[C@@H]2COCCN12 [III-1]
[10]
  EC50: 2.85 nM
[5]
  EC50: 3.48 nM
[11]
  EC50: 2.08 nM
[3]; Influenza A virus
  EC50: 4.95 nM
[4]; [12]
  EC50: 14.7 nM

## O=C1c2c(O)c(=O)ccn2N([C@@H]2c3ccccc3SCc3cccc(Cl)c32)[C@@H]2COCCN12 (racemic) [Reference 684]
[1]
  IC50: 19.7 nM

## O=C1c2c(O)c(=O)ccn2N(C2c3ccccc3CSc3ccccc32)[C@@H]2CCCN12 (stereo partly shown) [Reference 583 or 584]
[1]
  IC50: 43.4 nM and 28.1 nM

## NC(=O)c1nc(F)c[nH]c1=O [Favipiravir]
[3]; Influenza A virus
  EC50: 26900 nM

## O=C1c2c(O)c(=O)ccn2N([C@@H]2c3ccccc3CSc3ccccc32)[C@@H]2COCCN12 (racemic) [Reference 714]
[1]
  IC50: 95 nM

## CCC(CC)[C@H](NC(C)=O)[C@@H]1[C@H](O)[C@@H](C(=O)O)C[C@H]1N=C(N)N [Peramivir, peramivir]
[2]
  proliferation inhibitory effect on influenza virus A (combination effect): synergistic
[3]
  EC50: 214 nM
[4]; single agent, B/Maryland/1/59, MDCK, read-out: EC50
  EC50: 354 nM

## O=C(O)[C@H]1C2CCC(CC2)[C@@H]1Nc1nc(-c2c[nH]c3ncc(F)cc23)ncc1F [VX-787, (2S,3S)-3-((5-Fluoro-2-(5-fluoro-1H-pyrrolo[2,3-b]pyridin-3-yl)pyrimidin-4-yl)amino)bicyclo[2.2.2]octane-2-carboxylic Acid]
[2]
  proliferation inhibitory effect on influenza virus A (combination effect): synergistic
[3]; Influenza A virus
  EC50: 9.38 nM
